Data from publication PMC10535741, “Styrylpyridinium Derivatives for Fluorescent Cell Imaging” (Pharmaceuticals, 2023).

Tests used:
Test in all cases: in vitro
Format in all cases: cell-based
[1] = test system: Saos-2 (human osteosarcoma)
From the text: (§1) For selected compounds, 6a–6f, we performed a determination of the cytotoxicity in a wider variety of cancer and non-cancerous cell lines (see Table S2, Supplementary Materials) in order to learn the characteristic features of selectivity or the similarity of biological properties.
(§2) The HT-1080 (human connective tissue fibrosarcoma, ATCC® CCL-121™), MH-22A (mouse hepatocarcinoma, ECACC Cat. No. 96121721), A-549 (human lung carcinoma, ATCC® CCL-185™), NIH3T3 (Swiss Albino mouse embryo fibroblast, ECACC Cat. No. 93061524), Hek293 (human embryonic kidney, ATCC® CRL-1573™), BHK-21 (Syrian hamster kidney, ATCC® CCL-10™), A-431 (human epidermoid carcinoma, ATCC® CRL-1555™), Saos-2 (human osteosarcoma, ATCC® HTB-85™), HeLa (human epitheloid cervix carcinoma, ATCC® CCL-2™), U937 (human myeloid leukaemia, ATCC® CRL-1593.2™), C6 (rat glioma, ATCC® CCL-107™), and B16-F10 (murine melanoma, ATCC® CRL-6475™) cell lines were obtained from the American Type Culture Collection (ATCC) and European Collection of Authenticated Cell Cultures (ECACC).
(§3) HT-1080, MH-22A, A-549, NIH3T3, BHK-21, A-431, HeLa, and B16-F10 cells were cultured in Dulbecco’s Modified Eagle’s Medium (DMEM) with 2 mM glutamine and 10% foetal bovine serum (FBS). Hek293 cells were cultured in Eagle’s Minimum Essential Medium with 10% foetal bovine serum. U937 cells were cultured in RPMI-1640 Medium with 2 mM glutamine and 10% foetal bovine serum. C6 cells were cultured in Ham’s F12 Medium with 2 mM glutamine and 10% foetal bovine serum. Saos-2 cells were cultured in McCoy’s 5a Medium with 2 mM glutamine and 10% foetal bovine serum. The cells were incubated at 37 °C with 5% CO2, 95% air, and complete humidity. Once ~90% confluence was reached, they were detached using 0.05% trypsin/EDTA and counted. The cells were plated at optimally determined densities for the logarithmic phase of growth. These cells were then suspended at a concentration of 4000 cells/well for HT-1080, MH-22A, A-549, NIH3T3, BHK-21, A-431, HeLa, B16-F10, Hek293, and Saos-2 cells and a concentration of 9000 cells/well for U937, C6, Hek293, and GM08402 cells and added onto a 96-well plate. For background absorption, some wells remained cell free, i.e., as a blank control. Cells were incubated for 72 h at 37 °C and 5% CO2 where they were exposed to a media containing serial dilutions of the investigated compounds (n = 3). Cell viability was measured using the 3-(4,5-dimethylthiazol-2-yl)-2,5-diphenyl-tetrazolium bromide (MTT) assay. In brief, after incubating with compounds, the culture medium was removed and fresh medium with 0.2 mg/mL MTT was added to each well of the plate. After incubation (3 h, 37 °C, 5% CO2), the medium with MTT solution was removed and replaced with 200 µL DMSO and 25 µL Sorenson’s glycine buffer (glycine 0.1 M, NaCl 0.1 M, pH: 10.5 with 0.1 M NaOH). The plate was shaken for 15 min at room temperature and the optical density (OD) of the wells was determined using a multichannel spectrophotometer (Thermo Scientific Multiskan EX) at 540 nm. The quantity of the control cells was taken in calculations as 100%. The IC50 value was calculated using the program Graph Pad Prism® 3.0.
(§4) The HT-1080 (human connective tissue fibrosarcoma, ATCC® CCL-121™), MH-22A (mouse hepatocarcinoma, ECACC Cat.No. 96121721), A-549 (human lung carcinoma, ATCC® CCL-185™), NIH 3T3 (mouse Swiss Albino embryo fibroblast, ECACC Cat.No. 93061524), Hek293 (human embryonic kidney, ATCC® CRL-1573™), BHK-21 (hamster Syrian kidney, ATCC® CCL-10™), A-431 (human epidermoid carcinoma, ATCC® CRL-1555™), Saos-2 (human oste osarcoma, ATCC® HTB-85™) HeLa (human epitheloid cervix carcinoma, ATCC® CCL-2™), U937 (human myeloid leukaemia, ATCC® CRL-1593.2™), C6 (rat glioma, ATCC® CCL-107™), B16-F10 (murine melanoma, ATCC® CRL-6475™) cell lines were obtained from American Type Culture Collection (ATCC) and European Collection of Authenticated Cell Cultures […]
(§5) Table S2. […]

[2] = test system: U937 (human myeloid leukaemia)
From the text: as §1, §2, §3, §4, §5

[3] = test system: A-549 (human lung carcinoma)
From the text: as §1, §2, §3, §4, §5

[4] = test system: HeLa (human epitheloid cervix carcinoma)
From the text: as §1, §2, §3, §4, §5

[5] = test system: Hek293 (human embryonic kidney)
From the text: as §1, §2, §3, §4, §5

[6] = test system: A-431 (human epidermoid carcinoma)
From the text: as §1, §2, §3, §4, §5

[7] = test system: B16-F10 (murine melanoma)
From the text: as §1, §2
as §3, with “3.0. […]” for “3.0.”

[8] = test system: C6 (rat glioma)
From the text: as §1, §2
as §3, with “3.0. […]” for “3.0.”

SMILES: CCCCCCCCCCCCCCCC[n+]1ccc(C=Cc2cc(OC)c(OC)c(OC)c2)cc1.[Br-] [Compound 6b]
- Cytotoxicity IC50 Saos-2 [1]: 0.60 µg/mL
- Cytotoxicity IC50 U937 [2]: 1.39 µg/mL
- Cytotoxicity IC50 A-549 [3]: 0.98 µg/mL
- Cytotoxicity IC50 HeLa [4]: 0.82 µg/mL
- Cytotoxicity IC50 Hek-293 [5]: 0.38 µg/mL
- Cytotoxicity IC50 A-431 [6]: 1.10 µg/mL
- Cytotoxicity IC50 B16-F10 [7]: 0.63 µg/mL
- Cytotoxicity IC50 C6 [8]: 1.23 µg/mL
